The values below come from patent publication US12653914B2, “Compounds for fast and efficient click release” (priority 2019, dated 2026).

Where two headings read alike, the source gives them in different places. Where a SMILES comes first, the peptide text is derived from it. [ ]: non-standard residue; d: D form. The star is where a group is joined. Dolaproine = CO[C@@H]([C@@H]1CCCN1)[C@@H](C)C(=O)O; X1 = COC(=O)[C@]1(O)CC/C=C/[C@H](OC(=O)*)CC1; Dil = CC[C@H](C)[C@H](NC)[C@@H](CC(=O)O)OC; X2 = C[C@@H](N*)[C@@H](O)c1ccccc1; NMeV = CN[C@H](C(=O)O)C(C)C

Data set [1] can be described thus: Release kinetics of 7-amino-4-methylcoumarin (AMC) in various media, fluorescence. To be noted: 5 μM 1.14, 7 μM activator 2.18. On the procedure:
1.14 was reacted in PBS, DMEM buffer, full cell growth medium (DMEM+10% FBS) or human plasma at a concentration of 5 μM with activator 2.18 (7 μM) in a quartz cuvette while magnetic stirring. The increase of fluorescence due to the release of 7-amino-4-methylcoumarin (AMC) was monitored using a Perkin Elmer LS55 fluorescence spectrometer. […] In contrast, with TCO triggers not of this invention, 2.18 gives low and slow release [Versteegen et al., Angew. Chem. Int. Ed. 2013, 52, 14112-14116, Sarris et al., Chem Eur J 2018, 24, 18075-18081].

Data set [2] is described as follows: Second order rate constants, TCO with tetrazine activators, stopped-flow spectrophotometry in PBS. To be noted: PBS at 37° C., 25 μM tetrazine, 50 μM TCO. On the procedure: Second order rate constants for the reaction of tetrazines activators with 1.13 and 1.71 were determined using a SX20 stopped-flow spectrophotometer from Applied Photophysics. Measurements were performed at 37° C. with 25 μM tetrazine and 50 μM TCO in PBS, in triplicates, monitored at 535 nm. Data was analyzed using GraphPad Prism. Second order rate constants were determined from nonlinear fitting of the absorbance vs. time curves to the second order rate equation. […] Importantly, 2.17 and 2.18 are very reactive, but afford low release yields with TCO triggers that are not part of this invention (i.e. 1.71) [Versteegen et al., Angew. Chem. Int. Ed. 2013, 52, 14112-14116].

Data set [3] is described as follows: Trigger stability in vitro in PBS. The note with it: 37° C., 200 μM, after 48 h, n=3. It is filed as physicochemical. On the procedure:
(§1) 1.13 was incubated at 37° C. in PBS and human plasma at a concentration of 200 μM. The concentration after 12, 24 and 48 h was determined (n=3) by titration with activator 2.9 and simultaneous absorbance measurements.

Data set [4] is classed as in vitro ADME. The note with it: human, 200 μM. On the procedure:
as §1

Data set [5] can be described thus: Second order rate constant, TCO derivatives with tetrazine 2.18, pseudo-first order, UV spectroscopy in MeCN. The note with it: reaction with 2.18 in MeCN at 20° C.; estimated from k1′. On the procedure: Second order rate constant for the reaction between TCO derivatives and tetrazine 2.18 was determined under pseudo-first order conditions in MeCN at 20° C. by UV spectroscopy. A cuvette was filled with MeCN (3 mL) and equilibrated at 20° C. A solution of 2.18 (20 μL, 25 mM in DMSO) was added, followed by a solution of the TCO (5 μL 25 mM in DMSO). The absorption at 540 nm was monitored. The pseudo-first order reaction constant k1′ was calculated from the half-life of the decrease of this absorption, and the second order rate constant k2 was estimated from k1′ and the initial concentration of tetrazine: k2=k1′/c.

Data set [6] in a line: Release of constructs (C^A) from TCO triggers with tetrazines, HPLC-MS/PDA. To be noted: 5 min, released payload dimethylamine, MeCN/PBS. On the procedure:
In another experiment, the release of TCO triggers was evaluated with a range of tetrazines. The constructs to be released included the drug doxorubicin, and methylamine as a model C^A. TCO-C^A conjugates (10 μL, 25 mM in DMSO) were diluted with MeCN ([…]) and PBS ([…]). Next, a solution of the tetrazine activator (20 μL 25 mM in DMSO) was added, and the release was evaluated by HPLC-MS/PDA. The results in Table 6 show complete C^A release in 5 min from all TCO triggers with all tested activators. Importantly, no release was observed from 1.42 and 1.62 upon reaction with 2.18, which supports Formula (19), wherein an amine being Y^T1, Y^T2 or Y^T3 cannot be bound to a carbonyl.

For data set [7] the following is noted: cited from earlier work.
Data set [8] has as its system HT-1080 cells (human fibrosarcoma). Put plainly: Cell viability, MTT assay. It is filed as cell-based. To be noted: then 94 h, n=3. On the procedure:
HT-1080 cells (human fibrosarcoma) were added with serial dilutions of the TCO-MMAE prodrug 1.16 (100 μM-0.32 nM) in growth medium and 10 μL of a stock solution of activator 2.18 (50 μM in PBS) in a 96-well plate (n=3). After a 2 h incubation at 37° C., the medium was refreshed and the cells were incubated for 94 more hours.

As for `COC(=O)[C@]1(O)CC/C=C/[C@H](OC(=O)Nc2ccc3c(C)cc(=O)oc3c2)CC1` [Compound 1.14, Methyl(1S,4E,6R)-1-hydroxy-6-{[(4-methyl-2-oxo-2H-chromen-7-yl)carbamoyl]oxy}cyclooct-4-ene-1-carboxylate], the “time to reach 100% AMC release” value in data set [1] (PBS and medium (neat or containing FBS)) lay in the range of 1 to 3 min. Also, the “time to complete AMC release” value in data set [1] (human plasma) was “approximately 20 min”.
On to `COC(=O)[C@]1(O)CC/C=C/[C@H](OC(=O)NCCOCCOCCOCCO)CC1` [Compound 1.13, Methyl(1S,4E,6R)-1-hydroxy-6-{[(2-{2-[2-(2-hydroxyethoxy)ethoxy]ethoxy}ethyl)carbamoyl]oxy}cyclooct-4-ene-1-carboxylate], for which the k2 was determined as 260 ± 40 M⁻¹ s⁻¹ in data set [2] (activator 2.12), 8700 ± 1200 M⁻¹ s⁻¹ in data set [2] (activator 2.17), 10400 ± 1100 M⁻¹ s⁻¹ in data set [2] (activator 2.18) and 70 ± 10 M⁻¹ s⁻¹ in data set [2] (activator 2.9). For the same compound, the “intact TCO” value in data set [3] is listed as 101±5%. Further, the “residual intact TCO” value in data set [4] (24 h) worked out at 98±7%; in data set [4] (48 h) it was 76±9%.
Consider `COC(=O)[C@H]1CC[C@@H](OC(=O)N(C)C)/C=C/C[C@@H]1N` [Compound 1.43, Methyl (1S,2S,4E,6R)-2-amino-6-((dimethylcarbamoyl)oxy)cyclooct-4-ene-1-carboxylate], for which, in data set [5], the k2 was 27 M⁻¹ s⁻¹. Further, the “Time point and release %” value in data set [6] (tetrazines 2.1, 2.3, 2.15, 2.17, 2.18 (for all tested activators)) is given as 5 min: 100%.
In the case of `Cc1nnc(C)nn1` [3,6-bis-methyl-1,2,4,5-tetrazine], the maximum release yield in data set [7] (release typically takes several hours) is 80-90%.
Consider `CC[C@H](C)[C@@H]([C@@H](CC(=O)N1CCC[C@H]1[C@H](OC)[C@@H](C)C(=O)N[C@H](C)[C@@H](O)c1ccccc1)OC)N(C)C(=O)[C@@H](NC(=O)[C@H](C(C)C)N(C)C(=O)O[C@H]1/C=C/CC[C@@](O)(C(=O)OC)CC1)C(C)C` [Compound 1.16, TCO-MMAE] (X1-[NMeV]V[Dil][Dolaproine]-X2), for which the IC50 – broadly, the concentration that gives 50% inhibition – in data set [8] (HT-1080, 1.16 alone (no activator), 2 h incubation) came to 1.3 µM; in data set [8] (HT-1080, in the presence of activator 2.18, 2 h incubation) it was 0.0003 µM.
With `c1ccc(-c2nnc(-c3ccccn3)nn2)nc1` [3,6-bis-(2-pyridyl)-1,2,4,5-tetrazine], the values for the click release yield in data set [7] (PBS/MeCN (3:1)) and in data set [7] (serum) were 7% and 12%, respectively.
In the case of `CN(C)C(=O)OC[C@H]1CC[C@H](OC(=O)N(C)C)/C=C/C[C@H]1N` (stereo in doubt) [Compound 1.54, (1S,5R,6S,E)-5-Amino-6-(((dimethylcarbamoyl)oxy)methyl)cyclooct-2-en-1-yl dimethylcarbamate], in data set [5], the k2 was 38 M⁻¹ s⁻¹. The “Time point and release %” value in data set [6] (tetrazine 2.18) is given as 5 min: 50%.
